Source: patent US20260137742A1, “Composition for Activating Transient Receptor Potential Ankyrin 1, and Composition for Enhancing Food Consumption and/or Ameliorating Decreased Appetite” (HOUSE FOODS GROUP INC., priority 2022, published 2026)

Assays:
human TRPA1 (hTRPA1) [1] = molecular target: T1, human TRPA1 (hTRPA1) (Homo sapiens, UniProt O75762); assay: Intracellular Ca2+ Imaging Assay 2 (stepwise concentrations 0.01 μM-300 μM); type: cell-based
T1 construct: expressed in transfected cells
Description: (§1) A DNA coding for human TRPA1 (hTRPA1) (GenBank accession number: NM_007332.3) was inserted into the pcDNA5/TO vector (Invitrogen) to create an expression vector. This expression vector was transfected into T-REx™-293 cells (Invitrogen) by a conventional method using Lipofectamine LTX (Invitrogen). Using 10% fetal bovine serum (FBS, Cytiva), 400μ/mL hygromycin B, and 5 μg/mL blasticidin S, which were added to Dulbecco's Modified Eagle Medium (DMEM, Nacalai Tesque) as drug selection medium, the transfectants were cultured by a conventional method and cloned to obtain an hTRPA1 stable expression cell line.
(§2) Next, an hTRPA1 stable expression cell line whose hTRPA1 expression had been induced in advance by a conventional method was prepared in a 96-well clear-bottom plate; after washing each well with PBS, 50 μL of assay buffer (Hank's Balanced Salt Solution without calcium and magnesium ions, containing 1 mM CaCl2 dihydrate, 20 mM HEPES, 0.1% BSA, and 4 μM Calbryte™ 520 AM (manufactured by AAT BioQuest)) was added and incubated for 45 minutes at 33° C. After washing with assay buffer, 100 μL of assay buffer was added to each well.
(§3) This plate was set in FlexStation3 (Molecular Devices) and the fluorescence intensity (excitation at 490 nm, emission at 525 nm) was measured every 2 seconds at 31° C.; 30 seconds after the start of measurement, 100 μL of assay buffer containing the negative control DMSO (final concentration: 20 μL/mL), the positive control allyl isothiocyanate (AITC) (AITC was dissolved in DMSO; final concentration: 30 μM), each mushroom extract solution described above, or lenthionine (manufactured by Ambeed, Inc.) (lenthionine was dissolved in DMSO; final concentration: 50 μM) was added. In addition, to determine the reference for fluorescence intensity, wells to which assay buffer containing ionomycin (final concentration: 10 µM after addition) was added were prepared instead of the test samples.
(§4) Fluorescence intensity measurement was continued until 120 seconds from the start; the TRPA1-activating ability of the test samples and so forth was calculated using the formula below.
Aside from using samples in which the concentrations of AITC or lenthionine were set stepwise in the range of 0.01 μM-300 μM, the procedure was the same as in (2) above; the TRPA1-activating abilities of each sample were measured.

Male ICR mice = assay: Test 1 for Ameliorating Decreased Appetite (food intake in mice after single gastric gavage); type: in vivo; conditions: for Food Intake (Mean ± Standard Error, n = 10): lenthionine 50 μmol/kg body weight, single gastric gavage, 30 minutes after start of feeding
Description: Male ICR mice were kept in individual cages with ALPHA-dri (Shepherd Specialty Papers) as bedding, and they were fed a powdered diet (CE-2, CLEA Japan) using a powder feeder for mice (SN-950, Shinano Seisakusho Co., Ltd.), with ad libitum feeding and free access to water, for at least one week for acclimatization. During the few days prior to the experiment, daily handling and gavage training using a feeding needle (FG4202, Fuchigami Kikai) were performed.
As test samples, the following were prepared for each of carrier solution (containing, by volume, 5% dimethyl sulfoxide, 1% Tween80, and 94% corn oil) and lenthionine solution (carrier solution containing 0.94 mg lenthionine per 1 mL): one containing the TRPA1-specific antagonist A-967079 (1.0 μmol of A-967079 per 1 mL of the carrier solution) and one not containing it; one of these was administered to 11- to 12-week-old mice under ad libitum feeding conditions by a single gastric gavage at 9:20 a.m. at 10 mL/kg body weight. The dose of lenthionine in molar terms was 50 μmol/kg body weight. Immediately after the single gavage, at 9:30 a.m., the powdered feeder inside the cage was replaced with a new feeder loaded with powdered diet whose mass had been measured beforehand; this time point was set as the start of the feeding experiment. Thirty minutes after the start of the feeding experiment, the mass of the feeder and any spilled feed in the cage was measured, and the food intake (g) was calculated (n=10).

human TRPA1 (hTRPA1) [2] = molecular target: T1, human TRPA1 (hTRPA1); assay: Intracellular Ca2+ Imaging Assay 1 (TRPA1 activation rate, hTRPA1 stable expression cell line); type: cell-based; conditions: for TRPA1 Activation Rate (Mean ± Standard Error): relative to ionomycin, n = 6
Description: as §1
Two hundred microliters of each mushroom extract solution prepared in item 1 (1) was dispensed and the solvent was removed under vacuum using a desiccator. The dried residue left in the container was dissolved in 1 mL of assay buffer (Hank's Balanced Salt Solution without calcium and magnesium ions, containing 1 mM CaCl2 dihydrate, 20 mM HEPES, and 0.1% BSA). […]
as §3, §4
Fmax[s]: maximum fluorescence intensity after adding the test sample or positive control […]
Fmax[I]: maximum fluorescence intensity after adding ionomycin

human TRPA1 (hTRPA1) [3] = molecular target: T1, human TRPA1 (hTRPA1); assay: Intracellular Ca2+ Imaging Assay 3 (with or without TRPA1-specific antagonist A-967079); type: cell-based
Description: as §1, §2, §3, §4
Samples of 30 μM AITC, 100 μM or 5 μM lenthionine, or DMSO were used; the test was performed either in the presence of the TRPA1-specific antagonist A-967079 (1 μM) or in the absence thereof (DMSO: 20 μL/mL); apart from this, the procedure was the same as in (3) above, and the TRPA1-activating abilities of each sample were measured.

T1 sequence (O75762 whole entry): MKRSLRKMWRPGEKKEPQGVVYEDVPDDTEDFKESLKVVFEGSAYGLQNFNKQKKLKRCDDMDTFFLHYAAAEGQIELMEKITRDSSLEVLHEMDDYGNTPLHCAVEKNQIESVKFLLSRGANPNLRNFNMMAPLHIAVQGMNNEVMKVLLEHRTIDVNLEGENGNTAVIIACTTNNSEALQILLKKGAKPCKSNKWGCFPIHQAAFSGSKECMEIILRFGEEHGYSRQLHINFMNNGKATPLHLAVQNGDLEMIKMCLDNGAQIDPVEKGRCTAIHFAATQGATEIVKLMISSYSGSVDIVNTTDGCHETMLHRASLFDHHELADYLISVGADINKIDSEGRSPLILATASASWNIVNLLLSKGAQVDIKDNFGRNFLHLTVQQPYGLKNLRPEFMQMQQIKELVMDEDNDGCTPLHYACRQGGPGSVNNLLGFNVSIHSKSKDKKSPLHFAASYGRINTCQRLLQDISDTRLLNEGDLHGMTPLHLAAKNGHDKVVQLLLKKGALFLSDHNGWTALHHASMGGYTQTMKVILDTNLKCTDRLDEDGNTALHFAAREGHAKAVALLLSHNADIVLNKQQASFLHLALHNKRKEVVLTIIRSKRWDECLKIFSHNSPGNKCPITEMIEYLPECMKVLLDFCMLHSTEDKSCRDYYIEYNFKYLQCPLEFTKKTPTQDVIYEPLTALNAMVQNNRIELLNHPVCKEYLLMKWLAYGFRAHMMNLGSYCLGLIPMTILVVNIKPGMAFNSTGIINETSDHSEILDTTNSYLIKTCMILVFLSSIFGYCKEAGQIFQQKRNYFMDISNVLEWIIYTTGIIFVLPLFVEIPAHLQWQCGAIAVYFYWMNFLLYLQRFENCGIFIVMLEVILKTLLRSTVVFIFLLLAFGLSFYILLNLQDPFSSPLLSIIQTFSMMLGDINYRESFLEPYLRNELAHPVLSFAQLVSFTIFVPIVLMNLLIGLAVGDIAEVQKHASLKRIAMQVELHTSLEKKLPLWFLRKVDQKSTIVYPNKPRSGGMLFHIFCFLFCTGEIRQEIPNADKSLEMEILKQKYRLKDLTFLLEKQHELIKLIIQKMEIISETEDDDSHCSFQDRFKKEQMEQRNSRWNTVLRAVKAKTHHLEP

Structure (SMILES) | TRPA1 Activation Rate (Mean ± Standard Error, n = 6) (human TRPA1 (hTRPA1) [1]; 0.01 μM) | TRPA1 Activation Rate (Mean ± Standard Error, n = 6) (human TRPA1 (hTRPA1) [1]; 0.1 μM) | TRPA1 Activation Rate (Mean ± Standard Error, n = 6) (human TRPA1 (hTRPA1) [1]; 0.5 μM) | TRPA1 Activation Rate (Mean ± Standard Error, n = 6) (human TRPA1 (hTRPA1) [1]; 1 μM) | TRPA1 Activation Rate (Mean ± Standard Error, n = 6) (human TRPA1 (hTRPA1) [1]; 5 μM) | TRPA1 Activation Rate (Mean ± Standard Error, n = 6) (human TRPA1 (hTRPA1) [1]; 10 μM) | TRPA1 Activation Rate (Mean ± Standard Error, n = 6) (human TRPA1 (hTRPA1) [1]; 50 μM) | TRPA1 Activation Rate (Mean ± Standard Error, n = 6) (human TRPA1 (hTRPA1) [1]; 100 μM) | TRPA1 Activation Rate (Mean ± Standard Error, n = 6) (human TRPA1 (hTRPA1) [1]; 300 μM) | also measured
C1SSCSSS1 [Lenthionine, 1,2,3,5,6-pentathiepane] | 2.64 ± 0.19% | 2.42 ± 0.14% | 10.2 ± 0.82% | 22.3 ± 1.04% | 53.8 ± 2.29% | 72.5 ± 2.88% | 92.6 ± 3.83% | 104 ± 1.94% | 118 ± 2.65% | TRPA1-activating effect, concentration dependence (in words) (human TRPA1 (hTRPA1) [1]; 0.01 μM-300 μM, compared with AITC): activated TRPA1 in a concentration-dependent manner, at similar intensity to AITC; Food Intake (Mean ± Standard Error, n = 10) (Male ICR mice; No Antagonist): 0.117 ± 0.035 g; Food Intake (Mean ± Standard Error, n = 10) (Male ICR mice; With Antagonist A-967079 (1.0 μmol per 1 mL)): 0.025 ± 0.023 g; Food intake versus carrier solution (in words) (Male ICR mice; lenthionine solution with TRPA1-specific antagonist A-967079): no increase in food intake was observed; Food intake versus carrier solution (in words) (Male ICR mice; lenthionine solution, No Antagonist): food intake increased; TRPA1-activating effect (in words) (human TRPA1 (hTRPA1) [2]; Ca2+ imaging assay 1, summary of Table 1): activated TRPA1; TRPA1 Activation Rate (Mean ± Standard Error) (human TRPA1 (hTRPA1) [2]; lenthionine 50 μM final concentration): 93.0 ± 3.70%; TRPA1 Activation Rate (Mean ± Standard Error, n = 6) (human TRPA1 (hTRPA1) [3]; 5 μM, No Antagonist (DMSO 20 μL/mL)): 64.6 ± 1.38%; TRPA1 Activation Rate (Mean ± Standard Error, n = 6) (human TRPA1 (hTRPA1) [3]; 5 μM, With Antagonist A-967079 (1 μM)): 1.46 ± 0.14 %; TRPA1 Activation Rate (Mean ± Standard Error, n = 6) (human TRPA1 (hTRPA1) [3]; 100 μM, No Antagonist (DMSO 20 μL/mL)): 133 ± 1.36%; TRPA1 Activation Rate (Mean ± Standard Error, n = 6) (human TRPA1 (hTRPA1) [3]; 100 μM, With Antagonist A-967079 (1 μM)): 1.61 ± 0.37 %; TRPA1-activating effect in presence of TRPA1-specific antagonist (in words) (human TRPA1 (hTRPA1) [3]; A-967079 1 μM): inhibited by the TRPA1-specific antagonist
C=CCN=C=S [AITC, allyl isothiocyanate, reference compound] | 4.02 ± 0.50% | 5.20 ± 0.19% | 6.19 ± 0.32% | 13.0 ± 1.79% | 64.0 ± 4.13% | 85.2 ± 3.76% | 105 ± 1.86% | 117 ± 2.57% | 119 ± 2.74% | TRPA1 Activation Rate (Mean ± Standard Error) (human TRPA1 (hTRPA1) [2]; AITC 30 μM final concentration): 106 ± 1.89%; TRPA1 Activation Rate (Mean ± Standard Error, n = 6) (human TRPA1 (hTRPA1) [3]; 30 μM, No Antagonist (DMSO 20 μL/mL)): 156 ± 1.38%; TRPA1 Activation Rate (Mean ± Standard Error, n = 6) (human TRPA1 (hTRPA1) [3]; 30 μM, With Antagonist A-967079 (1 μM)): 1.22 ± 0.06 %
